# Measurements: article PMC3527451, “A Pilot Randomized, Placebo Controlled, Double Blind Phase I Trial of the Novel SIRT1 Activator SRT2104 in Elderly Volunteers” (PLoS ONE, 2012)
# “Also recorded” adds a separate entry of the source. Where two headings read alike, the source gives them in different places.
# Legend:
# [1] = test system: elderly male and female volunteers; assay: Modified oral glucose tolerance test (mOGTT); type: in vivo, human
# Description: The oral glucose tolerance test (OGTT) allows identification and monitoring of individuals with impaired glucose tolerance and to evaluate the pharmacological effects of glucose lowering agents, [21]. A mOGTT was performed at baseline and on day 29 to assess the pharmacodynamic effects of SRT2104 (or placebo) on glucose, insulin and C-peptide levels. On both occasion, after an overnight fast, subjects were asked to drink a standard glucose beverage containing 75 g of glucose. Blood sample were drawn 10 min before and just prior to the subject consuming the beverage. Additional blood samples were drawn at 10, 20, 30, 60, 90, 120 and 180 minutes after the subject had consumed the glucose beverage. Plasma level of glucose, insulin and C-peptide were measured at each time point. The maximum glucose level (Gmax) was determined, and the area under the plasma glucose concentration–time curve (AUCgluc) was calculated using the trapezoidal rule. AUCgluc60 was defined as the area under the curve from 0 to 60 min after glucose ingestion, the period during which plasma glucose concentration increases. The effects of SRT2104 (or placebo) on glucose, insulin and C-peptide levels and relative AUCs were calculated in each subject as the differences between values at baseline (screening) and after 28 daily administrations of the test material.
# [2] = test system: elderly male and female volunteers; assay: MRI of subcutaneous and visceral adipose tissue; type: in vivo, human; details: active treatment relative to placebo
# Description: Magnetic Resonance Imaging (MRI) was also carried out on a clinical Siemens 3T Tim Trio (Siemens Healthcare, Erlangen, Germany). The torso was imaged using the 6-channel spine array and two 4-channel body array coils. The data were acquired using a 3D spoiled gradient echo sequence with partial Fourier acquisitions (VIBE). The imaging volume consisted of contiguous 3D slabs (voxel size of 1.4×1.4×5 mm3) acquired in a single 15 s end-expiration breath-hold (repetition time = 7 ms; echo times TEs = 2.45, 3.67 ms; flip angle = 10°; 450 mm field-of-view; GRAPPA factor 2). […] Fat-only images in the abdomen were manually segmented into intra-abdominal adipose tissue (IAT) and abdominal subcutaneous adipose tissue (SAT). The abdominal area was defined by using anatomical landmarks (top of the femoral heads to the bottom of the right lung). All images were anonymized and blinded to time point, but not to subject in order to facilitate matching anatomical landmarks, and sent to a third party (Vardis Group Inc, London), who derived the adipose tissue volumes using Slice-O-Matic (Tomovision, Montreal, Canada) software. Analysis of compartmental fat distribution was performed for subcutaneous adipose tissue (SAT), visceral adipose tissue (VAT), and the ratio of SAT:VAT, using an ANOVA model with treatment group as a factor.
# [3] = test system: elderly male and female volunteers; assay: Maximal aerobic capacity test (incremental cycle ergometer); type: in vivo, human
# Description: A stepwise incremental exercise test was performed on a cycle ergometer (Monarch 874E, Monark Exercise AB, Vansbro, Sweden). All participants were familiarized to the test procedure on a separate occasion prior to testing. Participants were seated in a standardized position. The test started with unloaded cycling, subjects were asked to maintain a cadence of 50 revolutions per minute (rpm), if the subject could not achieve 50 rpm they were encouraged to cycle as fast as the could (but not less than 40 rpm). Every two minutes the external load on the cycle ergometer was increased by 0.5 kg, this equated to a 25-Watt increase in workload at 50 rpm. Cardiac monitoring of heart rate, respiratory rate/minute ventilation and pulse oximeter for oxygen saturation were continuously recorded during the test.
# Analysis of Maximal Aerobic Capacity parameters was performed using an ANOVA model with treatment group as a factor. Workload was progressed in 2-minute staged increments from an initial 3 minutes unloaded cycling, to exhaust subjects over a 6- to 10-min period. The test was terminated when the participant reached volitional exhaustion or their cadence dropped by 10 rpm. At the end of each increment, work-rate watts, rating of perceived exertion (Borg RPE scale), heart rate (Polar Vantage chest heart rate monitor, Polar Electro, Finland) and 3-lead ECG were recorded.
# [4] = test system: bacterial reverse mutation assay (AMES test), mouse lymphoma and mouse micronucleus; parameters: method as in ref 17, 18; SRT2104 Investigator's Brochure; details: preclinical; SRT2104 Investigator's Brochure; cited from earlier work
# CYP1A = details: human liver microsomes; cited from earlier work
# CYP2C9 = details: human liver microsomes; cited from earlier work
# SIRT1 = test system: SIRT1; parameters: method as in JC Milne et al, 2007; details: lowering of the Km for acetylated protein substrate; ref JC Milne et al, 2007; cited from earlier work
# DIO mice and ob/ob mice = details: cited from earlier work
# rat = test system: rat; parameters: method as in SRT2104 Investigator's Brochure; details: ref SRT2104 Investigator's Brochure, cited from earlier work; for NOAEL: 28 days
# SIRT2 = details: SIRT1 activation over SIRT2; ref SRT2104 Investigator's Brochure; cited from earlier work
# SIRT3 = details: SIRT1 activation over SIRT3; ref SRT2104 Investigator's Brochure; cited from earlier work
# [5] = once daily oral administration, ref SRT2104 Investigator's Brochure
smiles,measurement,setting,value
Cc1nc(-c2cccnc2)sc1C(=O)Nc1ccccc1-c1cn2c(CN3CCOCC3)csc2n1 [SRT2104],OGTT responses,[1]; 0.5 or 2.0 g for 28 days,No significant changes
same,rise of insulin and C-peptide and peak insulin concentration in OGTT,"[1]; 2.0 g/day, day 29 relative to baseline",trends to reduced rates in the rise of both insulin and C-peptide and a lower peak insulin concentration
same,insulin and C-peptide levels and relative AUCs in OGTT,[1]; baseline vs day 29,no statistically significant changes
same,subcutaneous (SAT) and visceral (VAT) adipose tissue volumes and VAT:SAT ratio,[2],No consistent changes from baseline
same,"RPE, range of change from baseline","[3]; 0.5g/day, day 27",-3-6
same,"TTC, range of change from baseline","[3]; 0.5g/day, day 27",-106 to 67 s
same,"TTC, mean change from baseline (SD)","[3]; 0.5g/day, day 27, p 0.004",-31 (50) sec
same,"RPE, mean change from baseline (SD)","[3]; 0.5g/day, day 27, p 0.962",0 (3)
same,decrease in exercise capacity (time to cessation for the staged bicycle assessment),"[3]; 0.5 g/day, day 27, p = 0.004",4%
same,"RPE, range of change from baseline","[3]; 2.0g/day, day 27",-3-1
same,"TTC, range of change from baseline","[3]; 2.0g/day, day 27",-29 to 45 s
same,change in exercise capacity,"[3]; 2.0g/day, day 27",no evidence for any changes
same,"TTC, mean change from baseline (SD)","[3]; 2.0g/day, day 27, p 0.292",9 (27) sec
same,"RPE, mean change from baseline (SD)","[3]; 2.0g/day, day 27, p 0.638",-1 (2)
same,genotoxicity,[4],not genotoxic
same,inhibition of CYP1A,CYP1A,not an inhibitor; also recorded: does not inhibit
same,inhibition of CYP2C9,CYP2C9,not an inhibitor; also recorded: does not inhibit
same,increase in SIRT1 activity,SIRT1,approximately two-fold increase in activity
same,"cholesterol, LDL and triglycerides in preclinical models of dyslipidemia, diabetes and obesity",DIO mice and ob/ob mice; e.g. DIO and Lep ob/ob obese mice,"lower cholesterol, LDL and triglycerides"
same,glucose and insulin levels,"DIO mice and ob/ob mice; once daily oral 0.1 g/kg for 7 days or more, ref SRT2104 Investigator's Brochure",reduces glucose and insulin levels
same,body weight,DIO mice and ob/ob mice; [5],No effect on body weight
same,fasting blood glucose and fed insulin,DIO mice and ob/ob mice; [5],lowered
same,response to a glucose tolerance test,DIO mice and ob/ob mice; [5],enhanced the response to a glucose tolerance test
same,adverse reactions in mouse models of diabetes,"DIO mice and ob/ob mice; up to 0.3 g/kg orally once daily for 28 days, ref SRT2104 Investigator's Brochure",No adverse reactions
same,"vacuolation of pancreatic acinar cells, animals affected","rat; female rat, Day 29, not seen after 4 weeks recovery",3/10
same,NOAEL,rat; female rats,1000 mg/kg
same,NOAEL,"rat; male rats, highest dose tested",2000 mg/kg
same,tolerability,"rat; rat, up to 2.0 g/kg for 28 days",well tolerated at all doses
same,fold selectivity as compared to SIRT2,SIRT2,> 100
same,fold selectivity as compared to SIRT3,SIRT3,> 100
